Results on 13 molecules are retold here after ChEMBL document CHEMBL3046530, “Novel potential nonsedating H1 antagonists related to the gauche rotamer of PROS-NH-histamine” (Med Chem Res, 2009).

Broadly, the inhibition is how much of the control response was suppressed. By Emax is commonly meant the maximal effect, on the per cent scale that the assay sets. What is called IC50 is the concentration at which inhibition is half-maximal.

Common to all, as to format: tissue-based
Test [1] concerns the target Histamine H1 receptor (Cavia porcellus) (UniProt P31389). Description: Inhibition of H1 receptor in Cavia porcellus Hartley (guinea pig) ileum assessed as inhibition of histamine-induced spasms incubated at 10 '-6 M 2 min prior histamine-challenge.
Test [2] has the same target. Description: Inhibition of H1 receptor in Cavia porcellus Hartley (guinea pig) ileum assessed as inhibition of histamine-induced spasms incubated 2 min prior histamine-challenge relative to acrivastine.
Test [3] has the same target. Description: Inhibition of H1 receptor in Cavia porcellus Hartley (guinea pig) ileum assessed as inhibition of histamine-induced spasms incubated at 10 '-3 M 2 min prior histamine-challenge.
The target is the same in test [4]. Description: Inhibition of H1 receptor in Cavia porcellus Hartley (guinea pig) ileum assessed as inhibition of histamine-induced spasms incubated at 10 '-4 M 2 min prior histamine-challenge.
Test [5] shares this target. Description: Inhibition of H1 receptor in Cavia porcellus Hartley (guinea pig) ileum assessed as inhibition of histamine-induced spasms incubated at 10 '-5 M 2 min prior histamine-challenge.
Test [6] has the same target. Put plainly: Inhibition of H1 receptor in Cavia porcellus Hartley (guinea pig) ileum assessed as inhibition of histamine-induced spasms incubated at 10 '-2 M 2 min prior histamine-challenge.
Another test addresses Histamine H1 receptor (Cavia porcellus, UniProt P31389). Put plainly: Inhibition of H1 receptor in Cavia porcellus Hartley (guinea pig) ileum assessed as inhibition of histamine-induced spasms incubated 2 min prior histamine-challenge.

The structures appear in SMILES notation.

Histamine H1 receptor (Cavia porcellus), sequence (P31389 whole entry): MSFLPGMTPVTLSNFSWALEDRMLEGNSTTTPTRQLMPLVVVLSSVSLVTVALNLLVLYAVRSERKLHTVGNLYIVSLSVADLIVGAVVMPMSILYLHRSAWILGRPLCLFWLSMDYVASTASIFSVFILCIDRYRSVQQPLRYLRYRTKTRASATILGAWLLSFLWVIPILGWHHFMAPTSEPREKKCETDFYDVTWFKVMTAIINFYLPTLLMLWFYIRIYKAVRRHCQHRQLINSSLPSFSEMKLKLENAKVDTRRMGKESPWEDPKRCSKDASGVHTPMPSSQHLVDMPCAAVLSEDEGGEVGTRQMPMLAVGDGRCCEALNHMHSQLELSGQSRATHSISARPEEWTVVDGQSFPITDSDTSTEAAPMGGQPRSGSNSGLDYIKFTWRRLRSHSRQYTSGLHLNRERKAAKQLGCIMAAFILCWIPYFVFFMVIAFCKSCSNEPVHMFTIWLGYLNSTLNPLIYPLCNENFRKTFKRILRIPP
Histamine H1 receptor, sequence (P31389 whole entry): as above

For the molecule `CCOC(=O)N1CCN(C=C2C(=O)NC(=O)NC2=O)CC1`, the inhibition in test [1] was determined as 8%; in test [3], 25%; in test [4], 25%; in test [5], 9%; in test [6], 25%. Besides, the maximal effect (Emax) in test [2] turned out to be 25%.

Regarding `CC(C)(CO)NC=C1C(=O)NC(=O)NC1=O`, the inhibition in test [1] is 16.7%; in test [3] it was 85.5%; in test [4], 65%; in test [5] it was 40%; in test [6] it was 100%. Also, the maximum response (Emax) in test [2] is 65%. Moreover, the IC50 at Histamine H1 receptor stood at 6.15 µM.

Consider `CC(C)(CO)N1C(=O)c2ccccc2C1=O`, for which the inhibition in test [1], in test [3], in test [4], in test [5] and in test [6] was 0% each time. Besides, the Emax in test [2] is 0%.

For the molecule `O=C1NC(=O)C(=CNC2CCCCC2)C(=O)N1`, the inhibition in test [1] was 20%; in test [3] it was 100%; in test [4], 100%; in test [5] it was 55.3%; in test [6], 100%. Further, the maximum response (Emax) in test [2] is 100%. The half-inhibitory concentration (IC50) at Histamine H1 receptor was 7 µM.

On to `CC(C)CNCC(C)(C)N1C(=O)c2ccccc2C1=O`, for which the inhibition in test [1] came to 14%; in test [3], 20%; in test [4], 18%; in test [5] it was 16%; in test [6] it was 22%. In addition, the maximum response (Emax) in test [2] came to 18%.

Take `Cc1ccc(/C(=C\CN2CCCC2)c2cccc(/C=C/C(=O)O)n2)cc1` [ACRIVASTINE]: the inhibition in test [1] turned out to be 16.6%; in test [3], 100%; in test [4] it was 100%; in test [5] it was 60%; in test [6], 100%. Besides, the maximal response (Emax) in test [2] was found to be 100%. Further, the concentration for half-maximal inhibition (IC50) at Histamine H1 receptor came out at 6.12 µM.

Consider `CC(CO)(CO)NCc1nc2ccccc2[nH]1`, for which the inhibition in test [1] was 0%; in test [3], 50%; in test [4], 14.2%; in test [5], 11.2%; in test [6] it was 85.7%. For the same molecule, in test [2], the Emax was determined as 14.2%.

Take `OCCN(Cc1nc2ccccc2[nH]1)c1nc2ccccc2[nH]1`: the inhibition in test [1] turned out to be 0%; in test [3], 60%; in test [4], 11%; in test [5], 10.5%; in test [6], 65.5%. Moreover, the maximal response (Emax) in test [2] amounted to 11%.

As to `CC(CO)(CO)NCCCN1C(=O)c2ccccc2C1=O`, the inhibition in test [1] was determined as 5.45%; in test [3], 69.2%; in test [4] it was 54%; in test [5], 28.4%; in test [6] it was 100%. For the same molecule, in test [2], the Emax was found to be 54%. Also, the half-maximal inhibitory concentration (IC50) on Histamine H1 receptor came to 80.2 µM.

Turning to `O=C1NC(=O)C(=CN2CCOCC2)C(=O)N1`, the inhibition is 12.8% in test [1]; 100% in test [3]; 100% in test [4]; 57.3% in test [5]; 100% in test [6]. Besides, in test [2], the maximum response (Emax) worked out at 100%. Also, at Histamine H1 receptor, the half-maximal inhibitory concentration (IC50) amounted to 86.8 µM.

With `O=C1c2ccccc2C(=O)N1CC(O)CNC1CCCCC1` (racemic), the inhibition in test [1] was determined as 12.9%; in test [3], 66%; in test [4] it was 37.5%; in test [5], 33.3%; in test [6], 78.3%. Also, in test [2], the Emax turned out to be 37.5%.

In the case of `CC(C)(CO)NCC(C)(C)N1C(=O)c2ccccc2C1=O`, the inhibition was determined as 0% in test [1]; 62.9% in test [3]; 20% in test [4]; 0% in test [5]; 100% in test [6]. In addition, the maximum response (Emax) in test [2] is 20%.

Turning to `CC(CO)(CO)Nc1nc2ccccc2[nH]1`, the inhibition in test [1] was found to be 7.16%; in test [3], 69%; in test [4], 55%; in test [5] it was 29.6%; in test [6] it was 100%. In addition, the Emax in test [2] was found to be 55%. In addition, on Histamine H1 receptor, the IC50 was found to be 28.9 µM.
